Experimental data from patent US5183821A, “Method for treating leukemias using N-(2-dimethylaminoethyl)-3-amino-1,8-naphthalimide for treating leukemias and solid tumors” (priority 1991, dated 1993).
Converted amounts (≈) assume the structure as drawn. “Also recorded” adds a separate entry of the source.

Legend:
Fischer 344 rats = assay: Five daily dose rat toxicity study; type: in vivo; conditions: for toxicity summary, rats: five daily doses i.v. (X5)
Procedure: Preclinical toxicity studies of BIDA were completed in CD2F1 Mice, Fischer 344 rats and beagle dogs (4). The animals were injected IV with a single bolus or daily for five days.
(§1) A preclinical toxicology study of benzisoquinolinedione (NSC-308847) was done at Springborn Institute for Bioresearch, Inc. using CD2 F1 mice, Fischer 344 rats and beagle dogs. Animals were injected intravenously on a single dose (X1) or five daily dose (X5) regimen. Bulk drug was titrated with 0.5N HCl to form a salt solution of benzisoquinolinedione at a pH of 5.0-6.5. Sterile 0.9% saline was used for diluting the dosing solutions and was used for the vehicle control animals.
The following summarizes the major organ toxicities resulting from IV administration of benzisoquinolinedione to rats.

CD2 F1 mice = assay: Five daily dose (X5) mouse range-finding and lethality study; type: in vivo
Procedure: as §1
(§2) The deaths generally were preceded by rough hair coat, decreased activity, hunched posture and dehydration. […] Males and females were similarily affected on both schedules.
(§3) Defined Doses for the Five Daily Dose Mouse Lethality

[1] = as above; type: in vivo, CD2 F1 mice; conditions: mouse, in vivo, iv
Procedure: as §1, §2, §3

M5076 ovarian carcinoma = assay: NCI screen, M5076 ovarian carcinoma, intraperitoneal (summary); type: in vivo, Mouse; conditions: for Antitumor activity in words: M5076
Source text: The activity of the compound has been evaluated by experiments carried out under the auspices of the Division of Cancer Treatment, National Cancer Institute, employing techniques considered to be reliable indicators of chemotherapeutic utility in the treatment of forms of cancer in human patients. The details of the methodology employed in the reported experiments may be determined with reference to established NCI screening methods. In the experiments conducted by the NCI, evaluation of activity is made on the basis of appropriate parameters, such as median survival time (MST) or change in average tumor diameter (CATD)in ocular micrometer units (OMU).

L-1210 Lymphoid leukemia = assay: Experiment 3: L-1210 i.p., 10^5 cells, saline with Tween-80, male; type: in vivo, Mouse CD2 F1 (CDF1)
Source text: Host: Mouse CD2 F1 (CDF1)
Tumor: L-1210 Lymphoid leukemia
Inoculum Site: intraperitoneal
Vehicle: Saline with Tween-80
Treatment schedule (relative to tumor inoculation day) daily on days 1-9
Day of evaluation (relative to tumor inoculation day): 30
Parameter: Mean survival time (MST) in days.
NCI minimal activity criteria: Percent T/C≥125
Percent T/C: Ratio of test (T) evaluation to control (C) evaluation expressed as a percentage

HeLa cells = conditions: cytotoxic activity in vitro, monolayer; cited from earlier work
[2] = X5, listed as benzisoquinolinedione

**Q.** With `CN(C)CCN1C(=O)c2cccc3cc(N)cc(c23)C1=O` [Example 9, 1H-Benz[de]isoquinoline-1,3(2H)-dione, 5-amino-2-[2-(dimethylamino)ethyl]] as the compound, how does the Reproductive findings (Fischer 344 rats; 24.0 mg/kg/day, listed as benzisoquinolinedione) read?
**A.** All five males showed decreased testicular weights on day 36; also recorded: No reproductive lesions were seen on day 8 in males or females

**Q.** What about the “marked jejunal epithelial degeneration, incidence” value (Fischer 344 rats; 24.0 mg/kg/day, males, day 8) of the same compound?
**A.** 4/5

**Q.** What about the “marked to severe bone marrow atrophy, incidence” value (Fischer 344 rats; 24.0 mg/kg/day, males, day 8) of the same compound?
**A.** 5/5

**Q.** And the “marked to severe thymic atrophy, incidence” value (Fischer 344 rats; 24.0 mg/kg/day, males, day 8)?
**A.** 3/5

**Q.** And the “mild necrosis of the hair bulb, incidence” value (Fischer 344 rats; 24.0 mg/kg/day, males, day 8)?
**A.** 2/5

**Q.** What about the “mild to marked duodenal epithelial degeneration, incidence” value (Fischer 344 rats; 24.0 mg/kg/day, males, day 8) of the same compound?
**A.** 4/5

**Q.** And the “mild to marked duodenal epithelial necrosis, incidence” value (Fischer 344 rats; 24.0 mg/kg/day, males, day 8)?
**A.** 5/5

**Q.** And the “mild to marked ileal epithelial necrosis, incidence” value (Fischer 344 rats; 24.0 mg/kg/day, males, day 8)?
**A.** 4/5

**Q.** And the “mild to marked jejunal epithelial necrosis, incidence” value (Fischer 344 rats; 24.0 mg/kg/day, males, day 8)?
**A.** 4/5

**Q.** What about the “moderate to marked ileal epithelial degeneration, incidence” value (Fischer 344 rats; 24.0 mg/kg/day, males, day 8) of the same compound?
**A.** 4/5

**Q.** What about the “depression of group mean body weights” value (Fischer 344 rats; 24.0 mg/kg/day, males, day 26 as printed) of the same compound?
**A.** 31

**Q.** And the “body weight loss at termination” value (Fischer 344 rats; 24.0 mg/kg/day, males, day 36)?
**A.** 31

**Q.** And the “moderate bone marrow atrophy, incidence” value (Fischer 344 rats; 24.0 mg/kg/day, males, day 36)?
**A.** 1/5

**Q.** What about the “moderate to marked hyperkeratosis, incidence” value (Fischer 344 rats; 24.0 mg/kg/day, males, day 36) of the same compound?
**A.** 4/5

**Q.** And the “moderate to severe thymic atrophy, incidence” value (Fischer 344 rats; 24.0 mg/kg/day, males, day 36)?
**A.** 2/5

**Q.** What about the “depression of group mean body weights” value (Fischer 344 rats; 24.0 mg/kg/day, males, days 15 and 22) of the same compound?
**A.** 26

**Q.** What about the “Tail (integumentary) findings” value (Fischer 344 rats; 24.0 mg/kg/day, males, listed as benzisoquinolinedione) of the same compound?
**A.** the tail skin was friable and sloughing in males; also recorded: severe tail necrosis in all five males

**Q.** What about the “Deaths, females” value (Fischer 344 rats; 2XMELD10, X5) of the same compound?
**A.** one-half of the females

**Q.** What about the “toxicity summary, rats” value (Fischer 344 rats; listed as BIDA) of the same compound?
**A.** reproductive system toxicity was seen at doses of MELD 10 and higher

**Q.** And the “toxicity summary, rats” value (Fischer 344 rats; listed as benzisoquinolinedione)?
**A.** toxic on both schedules (X1, X5) to the hematopoietic system and to the male reproductive system; also recorded: gastrointestinal, tail lesions and possibly hepatotoxicity; also recorded: Toxicity to the testes and tails was delayed and had not reversed by day 36

**Q.** And the “body weight, mice” value (CD2 F1 mice; X5)?
**A.** Dose-related weight loss was mild to severe initially

**Q.** What about the “time of mortality, mice” value (CD2 F1 mice; [2]) of the same compound?
**A.** between days 1 and 10; also recorded: between days 6 and 10

**Q.** And the “toxic signs, mice” value (CD2 F1 mice; [2])?
**A.** labored breathing, exophthalmus, hyperextension of limbs, loss of locomotor ability, struggling, rough hair coat, huched posture, dehydration, increased irritability, decreased activity, swollen and necrotic tails, squinted eyes, prostration and moribundity; also recorded: ataxia and swollen faces with closed eyes and ocular discharge; also recorded: tail lesions which persisted to termination on day 33

**Q.** And the LD10 (CD2 F1 mice; combined sexes)?
**A.** 24.9 mg/kg/day

**Q.** What about the “LD10, second dose column” value (CD2 F1 mice; combined sexes) of the same compound?
**A.** 74.7

**Q.** What about the LD90 (CD2 F1 mice; combined sexes) of the same compound?
**A.** 32.5 mg/kg/day

**Q.** And the “LD90, second dose column” value (CD2 F1 mice; combined sexes)?
**A.** 97.5

**Q.** What about the “Slope (lethality)” value (CD2 F1 mice; combined sexes) of the same compound?
**A.** 22.3

**Q.** What about the LD10 (CD2 F1 mice; male) of the same compound?
**A.** 24.3 mg/kg/day

**Q.** And the “LD10, second dose column” value (CD2 F1 mice; male)?
**A.** 72.9

**Q.** What about the LD90 (CD2 F1 mice; male) of the same compound?
**A.** 34.2 mg/kg/day

**Q.** And the “LD90, second dose column” value (CD2 F1 mice; male)?
**A.** 102.6

**Q.** And the “Slope (lethality)” value (CD2 F1 mice; male)?
**A.** 17.2

**Q.** And the LD50 ([1]; combined sexes)?
**A.** 28.4 mg/kg

**Q.** And the LD50 ([1]; male)?
**A.** 28.8 mg/kg

**Q.** And the “Antitumor activity in words” value (M5076 ovarian carcinoma; listed as BIDA)?
**A.** Activity was seen

**Q.** What about the “Antitumor activity in words” value (M5076 ovarian carcinoma; listed as the compound) of the same compound?
**A.** activity substantially greater than the level considered to be of minimal interest; also recorded: exceeded the minimal level of activity for clinical interest

**Q.** And the “Table II evaluation” value (M5076 ovarian carcinoma; mean survival time, 15 tests, full wrapped cell: Activity Substantially greater than the minimal)?
**A.** Activity

**Q.** What about the “Mean survival time (MST)” value (L-1210 Lymphoid leukemia; 1.00 mg/kg i.p.) of the same compound?
**A.** 7.5 days

**Q.** And the “Percent T/C” value (L-1210 Lymphoid leukemia; 1.00 mg/kg i.p.)?
**A.** 92%

**Q.** And the “Mean survival time (MST)” value (L-1210 Lymphoid leukemia; 2.00 mg/kg i.p.)?
**A.** 8.3 days

**Q.** And the “Percent T/C” value (L-1210 Lymphoid leukemia; 2.00 mg/kg i.p.)?
**A.** 102%

**Q.** What about the “Mean survival time (MST)” value (L-1210 Lymphoid leukemia; 4.00 mg/kg i.p.) of the same compound?
**A.** 8.7 days

**Q.** What about the “Percent T/C” value (L-1210 Lymphoid leukemia; 4.00 mg/kg i.p.) of the same compound?
**A.** 107%

**Q.** And the “Mean survival time (MST)” value (L-1210 Lymphoid leukemia; 8.00 mg/kg i.p.)?
**A.** 10.2 days

**Q.** And the “Percent T/C” value (L-1210 Lymphoid leukemia; 8.00 mg/kg i.p.)?
**A.** 125%

**Q.** And the “Mean survival time (MST)” value (L-1210 Lymphoid leukemia; 16.00 mg/kg i.p.)?
**A.** 14.2 days

**Q.** And the “Percent T/C” value (L-1210 Lymphoid leukemia; 16.00 mg/kg i.p.)?
**A.** 175%

**Q.** And the “Mean survival time (MST)” value (L-1210 Lymphoid leukemia; 32.00 mg/kg i.p.)?
**A.** 7.8 days

**Q.** And the “Percent T/C” value (L-1210 Lymphoid leukemia; 32.00 mg/kg i.p.)?
**A.** 96%

**Q.** What about the “ID50 in HeLa cells” value (HeLa cells) of the same compound?
**A.** 2.5 µg/mL (≈ 8.82 µM)
